This is an account of results in PubChem BioAssay AID1259411 (Chemical Carcinogenesis Research Information System (CCRIS), 2018).

Active and inactive are the calls of the source. The rule behind the calls is not given here.

In the series the test system is rodent carcinogenicity bioassays, tumor incidence. As to the kind of experiment: CCRIS carcinogenicity studies. Summed up: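 Archive of carcinogenicity, mutagenicity, tumor promotion and tumor inhibition results drawn from journals, NCI reports and other sources, expert-reviewed; covers 1985-2011 and is no longer updated.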

`C=Cc1ccccc1`: the carcinogen call (Species: MOUSE, Strain/Sex: B6C3F1/FEMALE, Route: GAVAGE, Dose: 0, 150, 300 MG/KG FOR 78 WK (STUDY DURATION: 91 WK), Dose: 0, 150, 300 MG/KG FOR 78 WK (STUDY DURATION: 91 WK)) is “inactive; negative”; the carcinogen call (Species: MOUSE, Strain/Sex: B6C3F1/MALE, Route: GAVAGE, Dose: 0, 150, 300 MG/KG FOR 78 WK (STUDY DURATION: 91 WK), Dose: 0, 150, 300 MG/KG FOR 78 WK (STUDY DURATION: 91 WK), Tumor Site: Type of Lesion: LUNG: ADENOMA, CARCINOMA) is “equivocal”; the carcinogen call (Species: MOUSE, Strain/Sex: C57BL/FEMALE, Route: GAVAGE, Dose: 0, 300 MG/KG BW IN 0.1 ML OLIVE OIL FOR LIFE BEGINNING POST WEANING ADMINISTERED TO OFFSPRING OF FEMALES GIVEN 1350 MG/K) was “inactive; negative”; the carcinogen call (Species: MOUSE, Strain/Sex: C57BL/FEMALE, Route: GAVAGE, Dose: 0, 300 MG/KG BW IN 0.1 ML OLIVE OIL ONCE ON DAY 17 OF PREGNANCY (STUDY DURATION: 120 WK)) is “inactive; negative”; the carcinogen call (Species: MOUSE, Strain/Sex: C57BL/MALE, Route: GAVAGE, Dose: 0, 300 MG/KG BW IN 0.1 ML OLIVE OIL FOR LIFE BEGINNING POST WEANING ADMINISTERED TO OFFSPRING OF FEMALES GIVEN 300 MG/KG) was “inactive; negative”; the carcinogen call (Species: MOUSE, Strain/Sex: CD-1/FEMALE, Route: INHALATION, Dose: 0, 20, 40, 80, 160 PPM IN CHAMBER FOR 6 HR/D 5D/WK FOR 98 WK (STUDY DURATION: 98 WK), Dose: 0, 20, 40, 80, 160 PPM IN CHAMBER FOR 6 HR/D 5D/WK FOR 98 WK (STUDY DURATION: 98 WK), Tumor Site: Type of Lesion: LUNG: BRONCHIOLOALVEOLAR ADENOMA, BRONCHIOLOALVEOLAR CARCINOMA) was “active; positive”. Also, the carcinogen call by setting is: (Species: MOUSE, Strain/Sex: CD-1/MALE, Route: INHALATION, Dose: 0, 20, 40, 80, 160 PPM IN CHAMBER FOR 6 HR/D 5D/WK FOR 104 WK (STUDY DURATION: 104 WK), Dose: 0, 20, 40, 80, 160 PPM IN CHAMBER FOR 6 HR/D 5D/WK FOR 104 WK (STUDY DURATION: 104 WK), Tumor Site: Type of Lesion: LUNG: BRONCHIOLOALVEOLAR ADENOMA) “active; positive”; (Species: MOUSE, Strain/Sex: O20/FEMALE, Route: GAVAGE, Dose: 0, 1350 MG/KG BW IN 0.1 ML OLIVE OIL FOR 16 WK POST WEANING ADMINISTERED TO OFFSPRING OF FEMALES GIVEN 1350 MG/KG ON DAY, Tumor Site: Type of Lesion: LUNG: ADENOMA OR CARCINOMA) “active; positive”; (Species: MOUSE, Strain/Sex: O20/FEMALE, Route: GAVAGE, Dose: 0, 1350 MG/KG BW IN 0.1 ML OLIVE OIL ONCE ON DAY 17 OF PREGNANCY (STUDY DURATION: 120 WK)) “inactive; negative”; (Species: MOUSE, Strain/Sex: O20/MALE,FEMALE, Route: GAVAGE, Tumor Site: Type of Lesion: LUNG: ADENOMA, ADENOCARCINOMA) “active; positive”; (Species: MOUSE, Strain/Sex: O20/MALE, Route: GAVAGE, Dose: 0, 1350 MG/KG BW IN 0.1 ML OLIVE OIL FOR 16 WK POST WEANING ADMINISTERED TO OFFSPRING OF FEMALES GIVEN 1350 MG/KG ON DAY, Tumor Site: Type of Lesion: LUNG: ADENOMA OR CARCINOMA) “active; positive”; (Species: MOUSE, Strain/Sex: STRAIN-A/FEMALE, Route: INTRAPERITONEAL, Dose: 0, 10 UMOL IN 0.1 ML OLIVE OIL 3/WK FOR 20 DOSES (TOTAL DOSE: 200 UMOL) (STUDY DURATION: 27 WK)) “inactive; negative”. Besides, the carcinogen call is, setting by setting: (Species: RAT, Strain/Sex: BDIV/FEMALE, Route: GAVAGE, Dose: 0, 500 MG/KG BW IN 0.3 ML OLIVE OIL FOR LIFE BEGINNING POST WEANING ADMINISTERED TO OFFSPRING OF FEMALES GIVEN 1350 MG/K) “inactive; negative”; (Species: RAT, Strain/Sex: BDIV/FEMALE, Route: GAVAGE, Dose: 0, 1350 MG/KG BW IN 0.3 ML OLIVE OIL ONCE ON DAY 17 OF PREGNANCY (STUDY DURATION: 120 WK)) “inactive; negative”; (Species: RAT, Strain/Sex: BDIV/MALE, Route: GAVAGE, Dose: 0, 500 MG/KG BW IN 0.3 ML OLIVE OIL FOR LIFE BEGINNING POST WEANING ADMINISTERED TO OFFSPRING OF FEMALES GIVEN 1350 MG/K) “inactive; negative”.
